The source of these data is US20070003525A1, “Hydrogel compositions comprising nucleus pulposus tissue” (priority 2003, published 2007).

Holding throughout (type): cell-based
In data set [1] the test system is baboon intervertebral disc nucleus pulposus cells. Description: Alcian blue assay of proteoglycan synthesis, baboon cells. The note with it: 8 days, 10 ng/ml. Here is the method: (§1) Human intervertebral disc cells from Example 9 were seeded and grown in 24 well plates in TCM in the presence or absence of exogenous growth factors. At various time points, TCM was aspirated out from the wells and the wells washed 3 times with PBS. The cells were then fixed with 4% paraformaldehyde (pH 7.4) for 10 min. The fixed cells were washed 2 times with PBS and then stained overnight with 0.5% Alcian blue in 0.1N hydrochloric acid (pH 1.5). After overnight staining, excess stain was rinsed out with 3 rinses of PBS. The remaining Alcian blue stain (bound to proteoglycans) was dissolved overnight into 6 M guanidine hydrochloride and the absorbance at 630 nm was measured using a spectrophotometer, providing an indication of the induction of matrix production by exogenous growth factors in human nucleus pulposus cells.
The foregoing procedure was also applied to sheep and baboon intervertebral nucleus pulposus cells from Example 9 to obtain an indication of the induction of matrix production by exogenous growth factors in sheep and baboon nucleus pulposus cells.
TGF-β1 and BP were tested for their effects on stimulation of proteoglycan synthesis in baboon nucleus cells. […] The cells were fixed after 4 and 8 days of continuous exposure to growth factors, and proteoglycan synthesis was detected by the Alcian blue assay as described in Example 10.

Data set [2] concerns sheep intervertebral disc nucleus pulposus cells. Description: Alcian blue assay of proteoglycan synthesis, sheep cells. The settings on record: 10 ng/ml. Here is the method: as §1, with “cells. […]” for “cells.”
Transforming growth factor-β1 (TGF-β1) and a mixture of bone-derived protein growth factors (BP) produced according to U.S. Pat. Nos. 5,290,763, 5,371,191 and 5,563,124, were tested for their effects on stimulation of proteoglycan synthesis in ovine nucleus pulposus cells. […] At these time points, the cells were fixed and the amount of proteoglycan synthesis was measured by the Alcian blue assay as described in Example 10.

Data set [3] has the same test system. Description: ELISA of Type II collagen and chondroitin-6-sulfate production. The settings on record: 7 days, 10 ng/ml. Here is the method: To detect specific antigenic epitopes in the synthesized matrix, sheep intervertebral nucleus pulposus cells from Example 9, seeded and grown in monolayer, were fixed in 2% glutaraldehyde for 1 hour at room temperature. The fixed cells were washed 3 times with TBS for 5 min. each. To block non-specific antibody binding, the cells were incubated in a solution of Tris buffered saline (TBS) containing 1 mM ethylene-diamine-tetraacetic acid (EDTA), 0.05% Tween-20™, and 0.25% bovine serum albumin for 1 hour. The blocking step was followed by 3 washes with TBS for 5 min. each. The cells were incubated with the primary antibody at room temperature for 2.5 hours, and the excess primary antibody was removed by 3 washes with TBS for 5 min. each. A second incubation with blocking buffer was performed for 10 min., followed by 3 washes with TBS. […] The bound primary and secondary antibodies were detected by addition of an enzyme-specific substrate which produced a colored reaction. The colorimetric measurement was performed using a spectrophotometer, providing a quantitative measure of the presence of the bound antibodies. […]
After incubation with growth factors for 7 days, cell cultures were fixed in 2% glutaraldehyde and the quantity of Type II collagen and chondroitin-6-sulfate produced in the cell cultures was detected by ELISA according to the procedure described in Example 11. […]
On the technique in general: ELISA stands for enzyme-linked immunosorbent assay.

Data set [4] has as its system human intervertebral disc nucleus pulposus cells. The data set is described as follows: Alcian blue assay of proteoglycan synthesis, human cells. The settings on record: 10 ng/ml. Here is the method:
as §1
TGF-β1 and BP were tested for their effects on stimulation of proteoglycan synthesis in human nucleus cells. Human intervertebral disc nucleus pulposus cells obtained from Disc L5-S1 of a patient were cultured as described in Examples 8 and 9 and seeded into 24-well plates. After the cells adhered to the well surface, multiple dilutions of different growth factors were added. The concentrations of growth factors tested were 10 ng/ml TGF-β1, and 10 and 20 μg/ml of BP. The dilutions were prepared in TCM. The cells were fixed after 5 and 8 days of continuous exposure to growth factors and proteoglycans synthesized were detected by the Alcian blue assay as described in Example 10.
A second experiment to test the effects of TGF-β1 and BP on proteoglycan synthesis was performed on a different human patient from that described in Example 14. Human intervertebral disc cells obtained from another patient were cultured as described in Examples 8 and 9 and seeded into 24 well plates. Growth factors were added after the cells were allowed to adhere overnight. […] After 6 and 9 days the cells were fixed and the amount of proteoglycans synthesized was measured by the Alcian blue assay as described in Example 10.

The subject of data set [5] is Sheep nucleus cells (SNCs). Here is the method: The monomer solution was poured into molds and photo-polymerized using long-wave ultraviolet light at 365 nm wavelength. Polymerized hydrogels were placed into tissue culture inserts which were then placed above seeded SNCs. Cytotoxicity of unpolymerized matrix was also determined, by including inserts containing unpolymerized monomer solution. SNC seeded wells containing empty inserts served as controls. SNCs and inserts were completely immersed in TCM. […] The MTS assay measures viability of cells by a calorimetric method, wherein the MTS tetrazolium compound is bio reduced by cells into a colored formazan product which is soluble in TCM. The conversion is accomplished by dehydrogenase enzymes present in metabolically active cells.

Data set [6] concerns Sheep nucleus chondrocytes. The data set is described as follows: MTT cytotoxicity of the photo-initiating system. Here is the method:
Sheep nucleus chondrocytes were seeded in a 12-well plate at 20,000 cells/well and incubated with TCM. After allowing cells to adhere for over 48 hours, spent media was replaced with TCM containing 0 or 1000 ppm Irgacure 2959. SNCs were then exposed to long wave ultraviolet light at 365 nm wavelength for different lengths of time, followed by incubation at 37° C. MTT assay was performed at 1, 5, and 24 hours post UV exposure to assess viability of cells. The principle of the assay is similar to the MTS assay mentioned before, except that a different tetrazolium compound is used in this method.

In the case of Transforming growth factor-β1 [TGF-β1], the “increase in proteoglycan synthesis over the control” value in data set [1] came out at 21%. The “increase in proteoglycan synthesis above 0.5% serum control” value in data set [2] (7 day) was “not significant”. For the same molecule, the “increase in proteoglycan synthesis above 0.5% serum control” value in data set [2] (10 day) is listed as 52%. Also, in data set [3], the “increased production of Type II collagen over controls” value is 115% and the “increased production of chondroitin-6-sulfate over controls” value is reported as 800%. Moreover, the “increase in Alcian blue staining over the control” value in data set [4] (Example 14 patient, 8 days) was 42%. Besides, in data set [4] (Example 15 patient, 6 days), the “more proteoglycans than control” value is recorded as 54%. Moreover, the “increased proteoglycan production over controls” value in data set [4] (Example 15 patient, 9 days) is 74%.

In the case of `C=CN1CCCCCC1=O` [vinyl caprolactam], the “cytotoxicity (MTS, absorbance at 570 nm)” value in data set [5] is on record as “cytocompatible”.

Turning to `CC(C)(O)C(=O)c1ccc(OCCO)cc1` [Irgacure 2959], the “cytotoxicity (MTT)” value in data set [6] (1000 ppm in TCM, by itself (no free radical production), FIG. 29: 24 hours post-UV) was “not significantly cytotoxic”. Also, the “cell death by free radicals from UV light with Irgacure 2959 (MTT)” value in data set [6] (1000 ppm plus 365 nm UV for different lengths of time) was “significant only at 5 and 10 min of UV exposure”. In data set [5], the “cytotoxicity (MTS, absorbance at 570 nm)” value was “cytocompatible”.
